Assay results reported in ChEMBL document CHEMBL1201862, “PubChem BioAssay data set” (2004).
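Interpolation was linear, between the two tested concentrations surrounding the appropriate level; five concentrations were tested over 48 hours in 96-well plates. Abbreviation: GI50, concentration required for 50% inhibition of growth.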 Activity calls are given as the source filed them. Rule as the data show it: active = GI50 up to about 1.1 µM and inactive = higher.

Tests used:
Test in all cases: inhibition of tumour cell growth, NCI panel, 48 h
[1] = tested on: T47D
[2] = tested on: HOP-92
[3] = tested on: NCI-H460
[4] = tested on: NCI-H23
[5] = tested on: UACC-257
[6] = tested on: CCRF-CEM
[7] = tested on: SF-295
[8] = tested on: SF-268
[9] = tested on: HL-60
[10] = tested on: RXF 393
[11] = tested on: PC-3
[12] = tested on: U-251
[13] = tested on: IGROV-1
[14] = tested on: MDA-MB-231
[15] = tested on: 786-0
[16] = tested on: HCT-15
[17] = tested on: BT-549
[18] = tested on: DU-145
[19] = tested on: RPMI-8226
[20] = tested on: SN12C
[21] = tested on: HT-29
[22] = tested on: COLO 205
[23] = tested on: HCC 2998
[24] = tested on: SK-OV-3
[25] = tested on: MOLT-4
[26] = tested on: OVCAR-4
[27] = tested on: A498
[28] = tested on: SF-539
[29] = tested on: ACHN
[30] = tested on: LOX IMVI
[31] = tested on: SNB-75
[32] = tested on: M14
[33] = tested on: OVCAR-3
[34] = tested on: OVCAR-8
[35] = tested on: KM12
[36] = tested on: SK-MEL-5
[37] = tested on: CAKI-1
[38] = tested on: A549
[39] = tested on: K562
[40] = tested on: Malme-3M
[41] = tested on: HCT-116
[42] = tested on: NCI-H226
[43] = tested on: SR
[44] = tested on: NCI-H522
[45] = tested on: Hs-578T
[46] = tested on: MDA-N
[47] = tested on: SK-MEL-2
[48] = tested on: SNB-19
[49] = tested on: SK-MEL-28
[50] = tested on: OVCAR-5
[51] = tested on: NCI/ADR-RES
[52] = tested on: MCF7
[53] = tested on: UO-31
[54] = tested on: TK-10
[55] = tested on: SW-620
[56] = tested on: EKVX
[57] = tested on: HOP-62
[58] = tested on: UACC-62
[59] = tested on: MDA-MB-435

## O=C1C=CC(=O)c2c1ccc1c3ccccc3n(-c3cccc([N+](=O)[O-])c3)c21
[1]
  GI50: 2380 nM (inactive)
[2]
  GI50: 2090 nM (inactive)
[3]
  GI50: > 10000 nM (inactive)
[4]
  GI50: 2650 nM (inactive)
[5]
  GI50: 2620 nM (inactive)
[6]
  GI50: 357 nM (active)
[7]
  GI50: > 10000 nM (inactive)
[8]
  GI50: 5660 nM (inactive)
[9]
  GI50: 474 nM (active)
[10]
  GI50: 2380 nM (inactive)
[11]
  GI50: > 8300 nM (inactive)
[12]
  GI50: 9710 nM (inactive)
[13]
  GI50: 5810 nM (inactive)
[14]
  GI50: 2720 nM (inactive)
[15]
  GI50: 1910 nM (inactive)
[16]
  GI50: 2590 nM
[17]
  GI50: 1690 nM (inactive)
[18]
  GI50: > 10000 nM (inactive)
[19]
  GI50: 1000 nM (active)
[20]
  GI50: 3960 nM (inactive)
[21]
  GI50: > 10000 nM (inactive)
[22]
  GI50: 1420 nM (inactive)
[23]
  GI50: > 10000 nM (inactive)
[24]
  GI50: > 10000 nM (inactive)
[25]
  GI50: 355 nM (active)
[26]
  GI50: 2810 nM (inactive)
[27]
  GI50: 5850 nM (inactive)
[28]
  GI50: > 5050 nM (inactive)
[29]
  GI50: 1700 nM (inactive)
[30]
  GI50: > 10000 nM (inactive)
[31]
  GI50: > 10000 nM (inactive)
[32]
  GI50: 1730 nM (inactive)
[33]
  GI50: 2130 nM (inactive)
[34]
  GI50: 2830 nM (inactive)
[35]
  GI50: > 7980 nM (inactive)
[36]
  GI50: 5570 nM (inactive)
[37]
  GI50: 2550 nM (inactive)
[38]
  GI50: > 10000 nM (inactive)
[39]
  GI50: 367 nM (active)
[40]
  GI50: 1980 nM (inactive)
[41]
  GI50: 1920 nM (inactive)
[42]
  GI50: > 10000 nM (inactive)
[43]
  GI50: 412 nM (active)
[44]
  GI50: 1910 nM (inactive)
[45]
  GI50: 3760 nM (inactive)
[46]
  GI50: 2200 nM (inactive)
[47]
  GI50: > 10000 nM (inactive)
[48]
  GI50: > 10000 nM (inactive)
[49]
  GI50: 2840 nM (inactive)
[50]
  GI50: > 10000 nM (inactive)
[51]
  GI50: > 5580 nM (inactive)
[52]
  GI50: 2290 nM (inactive)
[53]
  GI50: 2400 nM (inactive)
[54]
  GI50: 2240 nM (inactive)
[55]
  GI50: 804 nM (active)
[56]
  GI50: > 5450 nM (inactive)
[57]
  GI50: > 10000 nM (inactive)
[58]
  GI50: 2130 nM (inactive)
[59]
  GI50: 2050 nM (inactive)
